Experimental data: ChEMBL document CHEMBL5244219, “Recent developments of quinolone-based derivatives and their activities against Escherichia coli” (Eur J Med Chem, 2018)
In brackets after ≈: the same amount, converted by molar mass.

Tests used:
Format in all cases: functional
[1] = tested on: Escherichia coli; assay: Antibacterial activity against Escherichia coli NCDC 134 assessed as bacterial growth inhibition
[2] = tested on: Escherichia coli; assay: Antibacterial activity against Escherichia coli assessed as bacterial growth inhibition incubated for 24 hrs by agar streak dilution method
[3] = tested on: Escherichia coli; assay: Antibacterial activity against Escherichia coli assessed as bacterial growth inhibition incubated for 18 hrs by twofold serial dilution assay
[4] = tested on: Escherichia coli; assay: Antibacterial activity against Escherichia coli NIHJ JC-2 assessed as bacterial growth inhibition

## CCn1cc(C(=O)O)c(=O)c2cc(F)c(N3CCN(CC(=O)Nc4nc5ccc(C)cc5s4)CC3)cc21
[1]
  MIC: 6 µg/mL (≈ 11.5 µM)

## CCn1cc(C(=O)O)c(=O)c2cc(F)c(N3CCN(C4SCC(=O)N4c4nc5ccc(F)cc5s4)CC3)cc21 (configuration not stated)
[2]
  MIC: 2 µg/mL (≈ 3.5 µM)

## CCn1cc(C(=O)O)c(=O)c2cc(F)c(N3CCN(C/C(=N/O)c4ccoc4)CC3)nc21
[3]
  MIC: 0.049 µg/mL (≈ 0.111 µM)

## CCn1cc(C(=O)O)c(=O)c2cc(F)c(N3CCN(C4SCC(=O)N4c4nc5ccc([N+](=O)[O-])cc5s4)CC3)cc21 (configuration not stated)
[2]
  MIC: 2 µg/mL (≈ 3.34 µM)

## CN1CCN(c2c(Cl)c3c(c(=O)c(C(=O)O)cn3C3CC3)c3[nH]cnc23)CC1
[4]
  MIC: 0.025 µg/mL (≈ 0.0622 µM)

## COc1ccc(/C=N/NC(=O)c2cn(C3CC3)c3cc(N4CCNCC4)c(F)cc3c2=O)cc1
[1]
  MIC: > 64 µg/mL

## O=C(N/N=C/c1ccc2c(c1)OCO2)c1cn(C2CC2)c2cc(N3CCNCC3)c(F)cc2c1=O
[1]
  MIC: > 64 µg/mL

## O=C(N/N=C/c1ccccc1)c1cn(C2CC2)c2cc(N3CCNCC3)c(F)cc2c1=O
[1]
  MIC: > 64 µg/mL

## COc1c(N2CCN(CC(=O)Nc3nc4c(Cl)ccc(Cl)c4s3)C(C)C2)c(F)cc2c(=O)c(C(=O)O)cn(C3CC3)c12 (configuration not stated)
[1]
  MIC: 6 µg/mL (≈ 9.46 µM)

## CCn1cc(C(=O)O)c(=O)c2cc(F)c(N3CCN(CC(=O)c4ccoc4)CC3)nc21
[3]
  MIC: 0.049 µg/mL (≈ 0.114 µM)

## O=C(N/N=C/c1ccccc1)c1cn(C2CC2)c2cc(N/N=C/c3ccccc3)c(F)cc2c1=O
[1]
  MIC: > 64 µg/mL

## CCCN(CCC)Cc1cn(-c2cc3c(cc2F)c(=O)c(C(=O)NO)cn3C2CC2)nn1
[1]
  MIC: > 64 µg/mL

## CCOc1ccc2nc(N3C(=O)CSC3N3CCN(c4cc5c(cc4F)c(=O)c(C(=O)O)cn5C4CC4)CC3)sc2c1 (configuration not stated)
[2]
  MIC: 2 µg/mL (≈ 3.28 µM)

## N#Cc1ccc2nc(N3C(=O)CSC3N3CCN(c4cc5c(cc4F)c(=O)c(C(=O)O)cn5C4CC4)CC3)sc2c1 (configuration not stated)
[2]
  MIC: 2 µg/mL (≈ 3.39 µM)

## CCn1cc(C(=O)O)c(=O)c2cc(F)c(N3CCN(C4SCC(=O)N4c4nc5ccc(C#N)cc5s4)CC3)cc21 (configuration not stated)
[2]
  MIC: 2 µg/mL (≈ 3.46 µM)

## COc1ccc(/C=N/NC(=O)c2cn(C3CC3)c3cc(N/N=C/c4ccc(OC)cc4)c(F)cc3c2=O)cc1
[1]
  MIC: > 64 µg/mL

## O=C(N/N=C/c1ccc2c(c1)OCO2)c1cn(C2CC2)c2cc(N/N=C/c3ccc4c(c3)OCO4)c(F)cc2c1=O
[1]
  MIC: > 64 µg/mL

## O=C(N/N=C/c1ccc(F)cc1)c1cn(C2CC2)c2cc(N3CCNCC3)c(F)cc2c1=O
[1]
  MIC: > 64 µg/mL

## COc1c(N2CCN(CC(=O)Nc3nc4ccc([N+](=O)[O-])cc4s3)C(C)C2)c(F)cc2c(=O)c(C(=O)O)cn(C3CC3)c12 (configuration not stated)
[1]
  MIC: 6 µg/mL (≈ 9.83 µM)

## CN1CCN(c2c(F)c3c(c(=O)c(C(=O)O)cn3C3CC3)c3[nH]cnc23)CC1
[4]
  MIC: 0.025 µg/mL (≈ 0.0649 µM)

## CCn1cc(C(=O)O)c(=O)c2cc(F)c(N3CCN(CC(=O)Nc4nc5ccc([N+](=O)[O-])cc5s4)CC3)cc21
[1]
  MIC: 6 µg/mL (≈ 10.8 µM)

## NC1CCN(c2c(Cl)c3c(c(=O)c(C(=O)O)cn3C3CC3)c3[nH]cnc23)C1 (configuration not stated)
[4]
  MIC: 0.025 µg/mL (≈ 0.0645 µM)

## O=C(N/N=C/c1ccccc1O)c1cn(C2CC2)c2cc(N3CCNCC3)c(F)cc2c1=O
[1]
  MIC: > 64 µg/mL

## O=C(CN1CCN(c2cc3c(cc2F)c(=O)c(C(=O)O)cn3C2CC2)CC1)Nc1nc2ccc(F)cc2s1
[1]
  MIC: 6 µg/mL (≈ 11.1 µM)

## O=C(N/N=C/c1ccc([N+](=O)[O-])cc1)c1cn(C2CC2)c2cc(N3CCNCC3)c(F)cc2c1=O
[1]
  MIC: > 64 µg/mL

## O=C(O)c1cn(C2CC2)c2cc(N3CCN(C4SCC(=O)N4c4nc5ccc([N+](=O)[O-])cc5s4)CC3)c(F)cc2c1=O (configuration not stated)
[2]
  MIC: 2 µg/mL (≈ 3.28 µM)

## O=C(O)c1cn(C2CC2)c2c(F)c(N3CCNCC(O)C3)c(F)cc2c1=O (configuration not stated)
[3]
  MIC: 0.25 µg/mL (≈ 0.659 µM)

## O=C(O)c1cn(C2CC2)c2c(F)c(N3CCNCC(F)C3)c(F)cc2c1=O (configuration not stated)
[3]
  MIC: 0.03 µg/mL (≈ 0.0787 µM)

## O=C(NO)c1cn(C2CC2)c2cc(-n3cc(CN4CCNCC4)nn3)c(F)cc2c1=O
[1]
  MIC: > 64 µg/mL

## CN1CCN(c2c(F)c3c(c(=O)c(C(=O)O)cn3C3CC3)c3[nH]nnc23)CC1
[4]
  MIC: 0.025 µg/mL (≈ 0.0647 µM)

## O=C(CN1CCN(c2cc3c(cc2F)c(=O)c(C(=O)O)cn3C2CC2)CC1)c1ccoc1
[3]
  MIC: 0.049 µg/mL (≈ 0.112 µM)

## O=C(N/N=C/c1ccc(F)cc1)c1cn(C2CC2)c2cc(N/N=C/c3ccc(F)cc3)c(F)cc2c1=O
[1]
  MIC: > 64 µg/mL

## CCn1cc(C(=O)O)c(=O)c2cc(F)c(N3CCN(C4SCC(=O)N4c4nc5ccc(NC(C)=O)cc5s4)CC3)cc21 (configuration not stated)
[2]
  MIC: 2 µg/mL (≈ 3.27 µM)

## COc1c(N2CCN(CC(=O)Nc3nc4ccc(F)cc4s3)C(C)C2)c(F)cc2c(=O)c(C(=O)O)cn(C3CC3)c12 (configuration not stated)
[1]
  MIC: 6 µg/mL (≈ 10.3 µM)

## CCn1cc(C(=O)O)c(=O)c2cc(F)c(N3CCN(C4SCC(=O)N4c4nc5ccc(Br)cc5s4)CC3)cc21 (configuration not stated)
[2]
  MIC: 2 µg/mL (≈ 3.16 µM)

## O=C(O)c1cn(C2CC2)c2cc(N3CCN(C4SCC(=O)N4c4nc5ccc(F)cc5s4)CC3)c(F)cc2c1=O (configuration not stated)
[2]
  MIC: 2 µg/mL (≈ 3.43 µM)

## CC(=O)Nc1ccc2nc(N3C(=O)CSC3N3CCN(c4cc5c(cc4F)c(=O)c(C(=O)O)cn5C4CC4)CC3)sc2c1 (configuration not stated)
[2]
  MIC: 2 µg/mL (≈ 3.21 µM)

## CCn1cc(C(=O)O)c(=O)c2cc(F)c(N3CCN(C/C(=N/OCc4ccccc4)c4ccoc4)CC3)nc21
[3]
  MIC: 0.049 µg/mL (≈ 0.0918 µM)

## O=C(O)c1cn(C2CC2)c2c(F)c(N3CCNCC3)c3nn[nH]c3c2c1=O
[4]
  MIC: 0.025 µg/mL (≈ 0.0671 µM)

## C[C@@H]1CN(c2c(F)c(N)c3c(=O)c(C(=O)O)cn(C4CC4)c3c2F)C[C@H](C)N1 [SPARFLOXACIN]
[4]
  MIC: 0.0125 µg/mL (≈ 0.0319 µM)

## CCn1cc(C(=O)O)c(=O)c2cc(F)c(N3CCN(C/C(=N/O)c4ccoc4)CC3)cc21
[3]
  MIC: 0.049 µg/mL (≈ 0.111 µM)

## COc1cc(/C=N/NC(=O)c2cn(C3CC3)c3cc(N4CCNCC4)c(F)cc3c2=O)cc(OC)c1OC
[1]
  MIC: > 64 µg/mL
